Assay results reported in US10385069B2, “Imidazo[2,1-B]thiazole and 5,6-dihydroimidazo[2,1-B]thiazole derivatives useful as S100-inhibitors” (Active Biotech AB, priority 2015, dated 2019).

target: T1, interaction between biotinylated human S100A9 and human RAGE-Fc (Homo sapiens, UniProt P06702); assay: AlphaScreen inhibition assay, biot-hS100A9:hRAGE-Fc; assay type: binding; settings: biot-hS100A9 pre-incubated with compound 1 h, assay buffer with CaCl2 and ZnCl2
T1 construct: made in house; host or cells: E. coli
T1 sequence (P06702 1-114): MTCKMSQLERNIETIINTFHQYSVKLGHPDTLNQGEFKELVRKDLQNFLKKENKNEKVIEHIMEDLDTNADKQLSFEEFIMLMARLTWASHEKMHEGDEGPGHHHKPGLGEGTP
From the text: Inhibition Assay, Biot-hS100A9:hRAGE-Fc
The AlphaScreen (Amplified Luminescent Proximity Homogeneous Assay) contains two types of beads, Alpha Donor beads and Acceptor beads (PerkinElmer). Upon laser excitation at 680 nm a photosensitizer in the Donor bead converts ambient oxygen to a more excited singlet state. The singlet oxygen molecule diffuses (maximum 200 nm) to react with a thioxene derivative in the Acceptor bead and generates a chemiluminescence reaction. Fluorophores in the Acceptor bead subsequently emit light at 520-620 nm which can be detected in the EnVision® Multilabel plate Reader (PerkinElmer). The beads are light sensitive and all work with the beads is performed under subdued light conditions or using green filters on light sources (Roscolux Chroma Green #389, Rosco).
In the AlphaScreen Inhibition Assay described here, protein A (Staphylococcus aureus) conjugated Acceptor beads are used together with streptavidin coated Donor beads (Perkin Elmer 6760617M). The Acceptor beads are pre-incubated with Fc-tagged recombinant human RAGE (rhRAGE-Fc) allowing binding of the rhRAGE-Fc to protein A on the beads. Biotinylated human S100A9 (biot-hS100A9) is pre-incubated with the low molecular test compounds. The pre-mixes are then added to the wells of a micro-plate and incubated allowing interaction between biot-hS100A9 and rhRAGE-Fc. Subsequent addition of streptavidin coated Donor beads causes binding of the streptavidin to the biotinylated hS100A9. After an additional incubation the signal is measured.
Without inhibitory compounds, the interaction of biot-hS100A9 to rhRAGE-Fc will bring the Acceptor and Donor beads in close proximity thus generating a high signal. With an inhibitor present the complex will not form resulting in a decreased signal. The assay is illustrated in FIG. 1.
Chemicals and Reagents. • AlphaScreen® General IgG (Protein A) Detection Kit, (PerkinElmer 6760617M) • HBS-P buffer (GE Healthcare, BR-1003-68) • HBS-N buffer (GE Healthcare, BR-1003-69) • CaCl2 in HBS-P • ZnCl2 in Milli-Q water • DMSO • Biotinylated hS100A9, (biotinylated via cystein by EZ-link Iodoacetyl-PEG2-Biotin reagent (Pierce no. 21334), in HBS-N • rhRAGE-Fc (R&D Systems, 1145-RG-50), in HBS-P
The AlphaScreen assay method is used for screening of the inhibitory effect of different compound samples at fixed concentrations or for IC50 determination by varying the compound concentrations. Samples of test compounds and references are prepared from solutions in DMSO. Relevant reference inhibitors and DMSO are used as controls for defined inhibition and non-inhibition, respectively in the assay. The percent inhibition in assay for test compounds and references are calculated by comparing their obtained assay signals with the signal values for the control with only DMSO (no compound).
Assay concentration of biotinylated hS100A9 and rhRAGE-Fc are batch dependent, and are determined and defined by separate cross-titration experiments using this AlphaScreen inhibition method to verify the optimal setup regarding signal strength and achievement of a defined inhibition with relevant reference compounds. The Final assay concentrations of Acceptor and Donor beads are 20 μg/mL.
Assay buffer is prepared by adding CaCl2 and ZnCl2 to HBS-P and is used freshly prepared in the experiment.
Biotin-hS100A9 solution for the experiment is prepared by dilution of appropriate amount of stock solution biot-hS100A9 in assay buffer (with CaCl2 and ZnCl2) and incubation in room temperature for 30 minutes.
rhRAGE-Fc solution for the experiment is prepared by dilution appropriate amount of rhRAGE-Fc stock in assay buffer.
Protein A Acceptor beads are diluted in assay buffer and are added to an equal volume of the prepared diluted rhRAGE-Fc solution. The beads are light sensitive. The vial is covered with aluminum foil and incubated at room temperature in the dark until biot-hS100A9+compound incubation is finished (see below). […]

| IC50 [nM] | SMILES |
| --- | --- |
| 600 | CC1(C)Cc2c(sc3nc(C(=O)O)c(CN4CCOCC4)n23)C(C)(C)C1 [Example 246, 9,9,11,11-Tetramethyl-3-(morpholin-4-ylmethyl)-7-thia-2,5-diazatricyclo[6.4.0.0^2,6]dodeca-1(8),3,5-triene-4-carboxylic acid] |
| 100 | O=C(O)c1nc2sc3c(Cl)c(F)ccc3n2c1C1CC1 [Example 291, 9-Chloro-3-cyclopropyl-10-fluoro-7-thia-2,5-diazatricyclo[6.4.0.0^2,6]dodeca-1(8),3,5,9,11-pentaene-4-carboxylic acid] |
| 500 | CS(=O)(=O)N1CC(c2c(C(=O)O)nc3sc4c(Cl)c(F)ccc4n23)C1 [Example 293, 9-Chloro-10-fluoro-3-(1-methanesulfonylazetidin-3-yl)-7-thia-2,5-diazatricyclo[6.4.0.0^2,6]dodeca-1(8),3,5,9,11-pentaene-4-carboxylic acid] |
| 770 | O=C(O)C1(Cc2ccccc2)CN2C(=N1)Sc1c2ccc(F)c1Cl (centres unmarked) [Example 262, 4-Benzyl-9-chloro-10-fluoro-7-thia-2,5-diazatricyclo[6.4.0.0^2,6]dodeca-1(8),5,9,11-tetraene-4-carboxylic acid] |
| 4940 | CC1(C)Cc2c(sc3nc(CC(=O)O)cn23)C(C)(C)C1 [Example 46, 2-{9,9,11,11-Tetramethyl-7-thia-2,5-diazatricyclo[6.4.0.0^2,6]dodeca-1(8),3,5-trien-4-yl}acetic acid] |
| 3410 | O=C(O)c1nc2sc3cc(OC(F)(F)F)ccc3n2c1Br [Example 17, 3-Bromo-10-(trifluoromethoxy)-7-thia-2,5-diazatricyclo[6.4.0.0^2,6]dodeca-1(8),3,5,9,11-pentaene-4-carboxylic acid] |
| 180 | O=C(NS(=O)(=O)CC(F)(F)F)c1cn2c(n1)sc1c(Cl)c(Cl)ccc12 [Example 25, 9,10-Dichloro-N-(2,2,2-trifluoroethanesulfonyl)-7-thia-2,5-diazatricyclo[6.4.0.0^2,6]dodeca-1(8),3,5,9,11-pentaene-4-carboxamide] |
| 780 | CN(C)Cc1c(C(=O)O)nc2sc3c(Cl)c(Cl)ccc3n12 [Example 203, 9,10-Dichloro-3-[(dimethylamino)methyl]-7-thia-2,5-diazatricyclo[6.4.0.0^2,6]dodeca-1(8),3,5,9,11-pentaene-4-carboxylic acid] |
| 420 | CN(C)c1c(C(=O)O)nc2sc3c(n12)CC(C)(C)CC3(C)C [Example 280, 3-(Dimethylamino)-9,9,11,11-tetramethyl-7-thia-2,5-diazatricyclo[6.4.0.0^2,6]dodeca-1(8),3,5-triene-4-carboxylic acid] |
| 1010 | CC1CCCc2c1sc1nc(C(=O)NS(C)(=O)=O)cn21 (single isomer, unassigned) [Example 49, N-Methanesulfonyl-9-methyl-7-thia-2,5-diazatricyclo[6.4.0.0^2,6]dodeca-1(8),3,5-triene-4-carboxamide] |
| 2210 | CS(=O)(=O)NC(=O)c1cn2c(n1)sc1cc(OC(F)(F)F)ccc12 [Example 20, N-Methanesulfonyl-10-(trifluoromethoxy)-7-thia-2,5-diazatricyclo[6.4.0.0^2,6]dodeca-1(8),3,5,9,11-pentaene-4-carboxamide] |
| 2390 | O=C(O)c1cn2c3c(sc2n1)CCCC3 [Example 31, 7-Thia-2,5-diazatricyclo[6.4.0.0^2,6]dodeca-1(8),3,5-triene-4-carboxylic acid] |
| 440 | CC1(C)Cc2c(sc3nc(C(=O)NS(C)(=O)=O)cn23)C1(C)C [Example 52, N-Methanesulfonyl-4,4,5,5-tetramethyl-7-thia-1,9-diazatricyclo[6.3.0.0^2,6]undeca-2(6),8,10-triene-10-carboxamide] |
| 2980 | O=C(O)c1cn2c3c(sc2n1)C(O)CCC3 (centres unmarked) [Example 39, 9-Hydroxy-7-thia-2,5-diazatricyclo[6.4.0.0^2,6]dodeca-1(8),3,5-triene-4-carboxylic acid] |
| 940 | O=C(O)c1cn2c(n1)sc1c(Cl)cc(Cl)cc12 [Example 204, 9,11-Dichloro-7-thia-2,5-diazatricyclo[6.4.0.0^2,6]dodeca-1(8),3,5,9,11-pentaene-4-carboxylic acid] |
| 550 | CC1(C)Cc2c(sc3nc(C(=O)NS(=O)(=O)CCCN4CCOCC4)cn23)C(C)(C)C1 [Example 55, 9,9,11,11-Tetramethyl-N-[3-(morpholin-4-yl)propanesulfonyl]-7-thia-2,5-diazatricyclo[6.4.0.0^2,6]dodeca-1(8),3,5-triene-4-carboxamide] |
| 460 | CCN(CC)CCCS(=O)(=O)NC(=O)c1cn2c(n1)sc1c(Cl)c(Cl)ccc12 [Example 29, 9,10-Dichloro-N-[3-(diethylamino)propanesulfonyl]-7-thia-2,5-diazatricyclo[6.4.0.0^2,6]dodeca-1(8),3,5,9,11-pentaene-4-carboxamide] |
| 740 | CC1(C)CCc2sc3nc(C(=O)NS(=O)(=O)CC(F)(F)F)cn3c2C1 [Example 57, 11,11-Dimethyl-N-(2,2,2-trifluoroethanesulfonyl)-7-thia-2,5-diazatricyclo[6.4.0.0^2,6]dodeca-1(8),3,5-triene-4-carboxamide] |
| 2970 | O=C(O)c1cn2c(n1)sc1cc(F)ccc12 [Example 10, 10-Fluoro-7-thia-2,5-diazatricyclo[6.4.0.0^2,6]dodeca-1(8),3,5,9,11-pentaene-4-carboxylic acid] |
| 1060 | CN1CCN(c2c(C(=O)O)nc3sc4c(n23)CC(C)(C)CC4(C)C)CC1 [Example 288, 9,9,11,11-Tetramethyl-3-(4-methylpiperazin-1-yl)-7-thia-2,5-diazatricyclo[6.4.0.0^2,6]dodeca-1(8),3,5-triene-4-carboxylic acid] |
| 1200 | CC1CCCc2c1sc1nc(C(=O)NS(C)(=O)=O)cn21 (single isomer, unassigned) [Example 48, N-Methanesulfonyl-9-methyl-7-thia-2,5-diazatricyclo[6.4.0.0^2,6]dodeca-1(8),3,5-triene-4-carboxamide] |
| 1040 | CC1(C)CCc2sc3nc(C(=O)NS(C)(=O)=O)cn3c2C1 [Example 50, N-Methanesulfonyl-11,11-dimethyl-7-thia-2,5-diazatricyclo[6.4.0.0^2,6]dodeca-1(8),3,5-triene-4-carboxamide] |
| 290 | CSc1c(C(=O)O)nc2sc3c(n12)CC(C)(C)CC3(C)C [Example 292, 9,9,11,11-Tetramethyl-3-(methylsulfanyl)-7-thia-2,5-diazatricyclo[6.4.0.0^2,6]dodeca-1(8),3,5-triene-4-carboxylic acid] |
| 360 | O=C(O)c1cn2c3c(sc2n1)-c1ccccc1CC3 [Example 41, 16-Thia-11,14-diazatetracyclo[8.6.0.0^2,7.0^11,15]hexadeca-1 (10),2(7),3,5,12,14-hexaene-13-carboxylic acid] |
| 430 | O=C(O)C1CN2C(=N1)Sc1c2ccc(Br)c1Cl (centres unmarked) [Example 240, 10-Bromo-9-chloro-7-thia-2,5-diazatricyclo[6.4.0.0^2,6]dodeca-1(8),5,9,11-tetraene-4-carboxylic acid] |
| 200 | O=C(O)c1nc2sc3c(Cl)c(F)ccc3n2c1N1CCOCC1 [Example 238, 9-Chloro-10-fluoro-3-(morpholin-4-yl)-7-thia-2,5-diazatricyclo[6.4.0.0^2,6]dodeca-1(8),3,5,9,11-pentaene-4-carboxylic acid] |
